Columns and labels:
Experiment in all cases: relative viability (nuclei count vs DMSO), 5 days (fraction); higher = more cells survive
[1] = compound: COC1=CC=C(C=C1)CN2C=CC3=C2C=C(C=C3)C(=O)NO + O=C(c1cc(Cc2n[nH]c(=O)c3ccccc23)ccc1F)N1CCN(C(=O)C2CC2)CC1 [Olaparib] (partner 8 µM)
How it was run: (§1)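 Five library-drug doses in √10 steps were combined with a fixed anchor-drug dose, or a single drug was given alone, by pin tool to lung cancer cell lines in 1536-well plates the day after seeding. Nuclei were stained and counted after 5 days. Relative viability is the nuclei count in treated wells over that in vehicle wells, taken as the median of duplicate plates.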

[2] = compound: COC1=CC=C(C=C1)CN2C=CC3=C2C=C(C=C3)C(=O)NO + Nc1nc2[nH]cc(CCc3ccc(C(=O)N[C@@H](CCC(=O)O)C(=O)O)cc3)c2c(=O)[nH]1 [Pemetrexed] (partner 0.2 µM)
How it was run: as §1

Veliparib + Vorinostat = compound: C[C@]1(c2nc3c(C(N)=O)cccc3[nH]2)CCCN1 [Veliparib] + O=C(CCCCCCC(=O)Nc1ccccc1)NO [Vorinostat] (partner 1 µM)
How it was run: as §1

Veliparib + Pictilisib = compound: C[C@]1(c2nc3c(C(N)=O)cccc3[nH]2)CCCN1 [Veliparib] + CS(=O)(=O)N1CCN(Cc2cc3nc(-c4cccc5[nH]ncc45)nc(N4CCOCC4)c3s2)CC1 [Pictilisib] (partner 1 µM)
How it was run: as §1

For HCC-366, the relative viability ([1]; first compound 0.08 µM) was 0.237, the relative viability ([1]; first compound 0.253 µM) was 0.338 and the relative viability ([1]; first compound 0.8 µM) was 0.371. For the same cell line, the relative viability ([1]; first compound 2.53 µM) was 0.375, the relative viability ([1]; first compound 8 µM) was 0.292 and the relative viability ([2]; first compound 0.08 µM) was 0.119. For the same cell line, the relative viability ([2]; first compound 0.253 µM) was 0.153, the relative viability ([2]; first compound 0.8 µM) was 0.172 and the relative viability ([2]; first compound 2.53 µM) was 0.153. It also gave a relative viability ([2]; first compound 8 µM) of 0.175, a relative viability (Veliparib + Vorinostat; first compound 0.02 µM) of 0.379 and a relative viability (Veliparib + Vorinostat; first compound 0.06325 µM) of 0.232. For the same cell line, the relative viability (Veliparib + Vorinostat; first compound 0.2 µM) was 0.296, the relative viability (Veliparib + Vorinostat; first compound 0.6325 µM) was 0.27 and the relative viability (Veliparib + Vorinostat; first compound 2 µM) was 0.289. For the same cell line, the relative viability (Veliparib + Pictilisib; first compound 0.02 µM) was 0.114, the relative viability (Veliparib + Pictilisib; first compound 0.06325 µM) was 0.15 and the relative viability (Veliparib + Pictilisib; first compound 0.2 µM) was 0.122. For the same cell line, the relative viability (Veliparib + Pictilisib; first compound 0.6325 µM) was 0.152 and the relative viability (Veliparib + Pictilisib; first compound 2 µM) was 0.15.

For HCC-827, the relative viability ([1]; first compound 0.08 µM) was 0.573, the relative viability ([1]; first compound 0.253 µM) was 0.697 and the relative viability ([1]; first compound 0.8 µM) was 0.655. It also gave a relative viability ([1]; first compound 2.53 µM) of 0.68, a relative viability ([1]; first compound 8 µM) of 0.531 and a relative viability ([2]; first compound 0.08 µM) of 0.228. It also gave a relative viability ([2]; first compound 0.253 µM) of 0.27, a relative viability ([2]; first compound 0.8 µM) of 0.262 and a relative viability ([2]; first compound 2.53 µM) of 0.266. The relative viability ([2]; first compound 8 µM) was 0.253, the relative viability (Veliparib + Vorinostat; first compound 0.02 µM) was 0.764 and the relative viability (Veliparib + Vorinostat; first compound 0.06325 µM) was 0.834. For the same cell line, the relative viability (Veliparib + Vorinostat; first compound 0.2 µM) was 0.793, the relative viability (Veliparib + Vorinostat; first compound 0.6325 µM) was 0.671 and the relative viability (Veliparib + Vorinostat; first compound 2 µM) was 0.746. The relative viability (Veliparib + Pictilisib; first compound 0.02 µM) was 0.936, the relative viability (Veliparib + Pictilisib; first compound 0.06325 µM) was 0.957 and the relative viability (Veliparib + Pictilisib; first compound 0.2 µM) was 1.01. For the same cell line, the relative viability (Veliparib + Pictilisib; first compound 0.6325 µM) was 0.984 and the relative viability (Veliparib + Pictilisib; first compound 2 µM) was 1.06.

Cell Line HOP-62 has a relative viability ([1]; first compound 0.253 µM) of 0.47, a relative viability ([1]; first compound 0.8 µM) of 0.489 and a relative viability ([1]; first compound 2.53 µM) of 0.396. The relative viability ([1]; first compound 8 µM) was 0.384, the relative viability ([2]; first compound 0.08 µM) was 0.278 and the relative viability ([2]; first compound 0.253 µM) was 0.454. For the same cell line, the relative viability ([2]; first compound 0.8 µM) was 0.31, the relative viability ([2]; first compound 2.53 µM) was 0.244 and the relative viability ([2]; first compound 8 µM) was 0.35. It also gave a relative viability (Veliparib + Vorinostat; first compound 0.02 µM) of 0.557, a relative viability (Veliparib + Vorinostat; first compound 0.06325 µM) of 0.527 and a relative viability (Veliparib + Vorinostat; first compound 0.2 µM) of 0.593. The relative viability (Veliparib + Vorinostat; first compound 0.6325 µM) was 0.539, the relative viability (Veliparib + Vorinostat; first compound 2 µM) was 0.68 and the relative viability (Veliparib + Pictilisib; first compound 0.02 µM) was 0.705. For the same cell line, the relative viability (Veliparib + Pictilisib; first compound 0.06325 µM) was 0.79, the relative viability (Veliparib + Pictilisib; first compound 0.2 µM) was 0.818 and the relative viability (Veliparib + Pictilisib; first compound 0.6325 µM) was 0.548. It also gave a relative viability (Veliparib + Pictilisib; first compound 2 µM) of 0.738.

IA-LM showed a relative viability ([1]; first compound 0.08 µM) of 0.755, a relative viability ([1]; first compound 0.253 µM) of 0.846 and a relative viability ([1]; first compound 0.8 µM) of 0.954. The relative viability ([1]; first compound 2.53 µM) was 0.902, the relative viability ([1]; first compound 8 µM) was 0.833 and the relative viability (Veliparib + Vorinostat; first compound 0.02 µM) was 0.925. For the same cell line, the relative viability (Veliparib + Vorinostat; first compound 0.06325 µM) was 0.906, the relative viability (Veliparib + Vorinostat; first compound 0.2 µM) was 0.888 and the relative viability (Veliparib + Vorinostat; first compound 0.6325 µM) was 0.789. For the same cell line, the relative viability (Veliparib + Vorinostat; first compound 2 µM) was 0.969, the relative viability (Veliparib + Pictilisib; first compound 0.02 µM) was 0.444 and the relative viability (Veliparib + Pictilisib; first compound 0.06325 µM) was 0.364. The relative viability (Veliparib + Pictilisib; first compound 0.2 µM) was 0.374, the relative viability (Veliparib + Pictilisib; first compound 0.6325 µM) was 0.306 and the relative viability (Veliparib + Pictilisib; first compound 2 µM) was 0.367.

Cell Line LC-2-ad has a relative viability ([1]; first compound 0.08 µM) of 0.696, a relative viability ([1]; first compound 0.253 µM) of 0.343 and a relative viability ([1]; first compound 0.8 µM) of 0.681. For the same cell line, the relative viability ([1]; first compound 2.53 µM) was 0.688, the relative viability ([1]; first compound 8 µM) was 0.709 and the relative viability ([2]; first compound 0.08 µM) was 0.283. The relative viability ([2]; first compound 0.253 µM) was 0.292, the relative viability ([2]; first compound 0.8 µM) was 0.307 and the relative viability ([2]; first compound 2.53 µM) was 0.303. It also gave a relative viability ([2]; first compound 8 µM) of 0.261, a relative viability (Veliparib + Vorinostat; first compound 0.02 µM) of 0.434 and a relative viability (Veliparib + Vorinostat; first compound 0.06325 µM) of 0.656. The relative viability (Veliparib + Vorinostat; first compound 0.2 µM) was 0.717, the relative viability (Veliparib + Vorinostat; first compound 0.6325 µM) was 0.655 and the relative viability (Veliparib + Vorinostat; first compound 2 µM) was 0.788. The relative viability (Veliparib + Pictilisib; first compound 0.06325 µM) was 0.431, the relative viability (Veliparib + Pictilisib; first compound 0.2 µM) was 0.428 and the relative viability (Veliparib + Pictilisib; first compound 0.6325 µM) was 0.464. It also gave a relative viability (Veliparib + Pictilisib; first compound 2 µM) of 0.497.

For LCLC-97TM1, the relative viability ([1]; first compound 0.253 µM) was 0.422, the relative viability ([1]; first compound 0.8 µM) was 0.375 and the relative viability ([1]; first compound 2.53 µM) was 0.36. The relative viability ([1]; first compound 8 µM) was 0.38, the relative viability ([2]; first compound 0.253 µM) was 0.192 and the relative viability ([2]; first compound 0.8 µM) was 0.182. It also gave a relative viability ([2]; first compound 2.53 µM) of 0.191, a relative viability ([2]; first compound 8 µM) of 0.144 and a relative viability (Veliparib + Vorinostat; first compound 0.02 µM) of 0.455. It also gave a relative viability (Veliparib + Vorinostat; first compound 0.06325 µM) of 0.797, a relative viability (Veliparib + Vorinostat; first compound 0.2 µM) of 0.849 and a relative viability (Veliparib + Vorinostat; first compound 0.6325 µM) of 0.632. It also gave a relative viability (Veliparib + Vorinostat; first compound 2 µM) of 0.637, a relative viability (Veliparib + Pictilisib; first compound 0.02 µM) of 0.155 and a relative viability (Veliparib + Pictilisib; first compound 0.06325 µM) of 0.224. It also gave a relative viability (Veliparib + Pictilisib; first compound 0.2 µM) of 0.215 and a relative viability (Veliparib + Pictilisib; first compound 2 µM) of 0.235.

LCLC-103H was tested, and the relative viability ([1]; first compound 0.08 µM) was 0.743, the relative viability ([1]; first compound 0.253 µM) was 0.777 and the relative viability ([1]; first compound 0.8 µM) was 0.773. The relative viability ([1]; first compound 2.53 µM) was 0.781, the relative viability ([1]; first compound 8 µM) was 0.708 and the relative viability ([2]; first compound 0.08 µM) was 0.475. The relative viability ([2]; first compound 0.253 µM) was 0.452, the relative viability ([2]; first compound 0.8 µM) was 0.482 and the relative viability ([2]; first compound 2.53 µM) was 0.414. For the same cell line, the relative viability ([2]; first compound 8 µM) was 0.425, the relative viability (Veliparib + Vorinostat; first compound 0.02 µM) was 0.846 and the relative viability (Veliparib + Vorinostat; first compound 0.06325 µM) was 0.726. For the same cell line, the relative viability (Veliparib + Vorinostat; first compound 0.2 µM) was 0.819, the relative viability (Veliparib + Vorinostat; first compound 0.6325 µM) was 0.749 and the relative viability (Veliparib + Vorinostat; first compound 2 µM) was 0.77. It also gave a relative viability (Veliparib + Pictilisib; first compound 0.02 µM) of 0.685, a relative viability (Veliparib + Pictilisib; first compound 0.06325 µM) of 0.615 and a relative viability (Veliparib + Pictilisib; first compound 0.2 µM) of 0.577. The relative viability (Veliparib + Pictilisib; first compound 0.6325 µM) was 0.666 and the relative viability (Veliparib + Pictilisib; first compound 2 µM) was 0.651.

Work on LK-2 yielded a relative viability ([1]; first compound 0.253 µM) of 0.792, a relative viability ([1]; first compound 0.8 µM) of 0.787 and a relative viability ([1]; first compound 2.53 µM) of 0.688. The relative viability ([1]; first compound 8 µM) was 0.722, the relative viability ([2]; first compound 0.253 µM) was 0.207 and the relative viability ([2]; first compound 0.8 µM) was 0.354. It also gave a relative viability ([2]; first compound 2.53 µM) of 0.353, a relative viability ([2]; first compound 8 µM) of 0.243 and a relative viability (Veliparib + Vorinostat; first compound 0.02 µM) of 0.223. It also gave a relative viability (Veliparib + Vorinostat; first compound 0.06325 µM) of 0.284, a relative viability (Veliparib + Vorinostat; first compound 0.2 µM) of 0.319 and a relative viability (Veliparib + Vorinostat; first compound 0.6325 µM) of 0.258. For the same cell line, the relative viability (Veliparib + Vorinostat; first compound 2 µM) was 0.29, the relative viability (Veliparib + Pictilisib; first compound 0.06325 µM) was 0.486 and the relative viability (Veliparib + Pictilisib; first compound 0.2 µM) was 0.618. The relative viability (Veliparib + Pictilisib; first compound 0.6325 µM) was 0.607 and the relative viability (Veliparib + Pictilisib; first compound 2 µM) was 0.625.

For LOU-NH91, the relative viability ([1]; first compound 0.253 µM) was 0.95, the relative viability ([1]; first compound 0.8 µM) was 0.928 and the relative viability ([1]; first compound 2.53 µM) was 0.903. The relative viability ([1]; first compound 8 µM) was 0.894, the relative viability ([2]; first compound 0.253 µM) was 0.417 and the relative viability ([2]; first compound 0.8 µM) was 0.346. For the same cell line, the relative viability ([2]; first compound 2.53 µM) was 0.372, the relative viability ([2]; first compound 8 µM) was 0.391 and the relative viability (Veliparib + Vorinostat; first compound 0.02 µM) was 0.846. It also gave a relative viability (Veliparib + Vorinostat; first compound 0.06325 µM) of 0.842, a relative viability (Veliparib + Vorinostat; first compound 0.2 µM) of 0.919 and a relative viability (Veliparib + Vorinostat; first compound 0.6325 µM) of 0.822. It also gave a relative viability (Veliparib + Vorinostat; first compound 2 µM) of 0.945, a relative viability (Veliparib + Pictilisib; first compound 0.02 µM) of 0.506 and a relative viability (Veliparib + Pictilisib; first compound 0.06325 µM) of 0.436. It also gave a relative viability (Veliparib + Pictilisib; first compound 0.2 µM) of 0.563, a relative viability (Veliparib + Pictilisib; first compound 0.6325 µM) of 0.528 and a relative viability (Veliparib + Pictilisib; first compound 2 µM) of 0.531.

Reference: the supplement of paper PMC10307832
